Literature values in the Kinase Knowledgebase extract (Sharma et al. 2016).
pIC50: −log10 of the molar value.

What was measured:
CDK2 (human) = CDK2 (human) (UniProt P24941); test: Enzyme Assay
EGFR = EGFR (UniProt P00533); test: EGFr Inhibition
Sequence of EGFR (P00533 whole entry, looked up): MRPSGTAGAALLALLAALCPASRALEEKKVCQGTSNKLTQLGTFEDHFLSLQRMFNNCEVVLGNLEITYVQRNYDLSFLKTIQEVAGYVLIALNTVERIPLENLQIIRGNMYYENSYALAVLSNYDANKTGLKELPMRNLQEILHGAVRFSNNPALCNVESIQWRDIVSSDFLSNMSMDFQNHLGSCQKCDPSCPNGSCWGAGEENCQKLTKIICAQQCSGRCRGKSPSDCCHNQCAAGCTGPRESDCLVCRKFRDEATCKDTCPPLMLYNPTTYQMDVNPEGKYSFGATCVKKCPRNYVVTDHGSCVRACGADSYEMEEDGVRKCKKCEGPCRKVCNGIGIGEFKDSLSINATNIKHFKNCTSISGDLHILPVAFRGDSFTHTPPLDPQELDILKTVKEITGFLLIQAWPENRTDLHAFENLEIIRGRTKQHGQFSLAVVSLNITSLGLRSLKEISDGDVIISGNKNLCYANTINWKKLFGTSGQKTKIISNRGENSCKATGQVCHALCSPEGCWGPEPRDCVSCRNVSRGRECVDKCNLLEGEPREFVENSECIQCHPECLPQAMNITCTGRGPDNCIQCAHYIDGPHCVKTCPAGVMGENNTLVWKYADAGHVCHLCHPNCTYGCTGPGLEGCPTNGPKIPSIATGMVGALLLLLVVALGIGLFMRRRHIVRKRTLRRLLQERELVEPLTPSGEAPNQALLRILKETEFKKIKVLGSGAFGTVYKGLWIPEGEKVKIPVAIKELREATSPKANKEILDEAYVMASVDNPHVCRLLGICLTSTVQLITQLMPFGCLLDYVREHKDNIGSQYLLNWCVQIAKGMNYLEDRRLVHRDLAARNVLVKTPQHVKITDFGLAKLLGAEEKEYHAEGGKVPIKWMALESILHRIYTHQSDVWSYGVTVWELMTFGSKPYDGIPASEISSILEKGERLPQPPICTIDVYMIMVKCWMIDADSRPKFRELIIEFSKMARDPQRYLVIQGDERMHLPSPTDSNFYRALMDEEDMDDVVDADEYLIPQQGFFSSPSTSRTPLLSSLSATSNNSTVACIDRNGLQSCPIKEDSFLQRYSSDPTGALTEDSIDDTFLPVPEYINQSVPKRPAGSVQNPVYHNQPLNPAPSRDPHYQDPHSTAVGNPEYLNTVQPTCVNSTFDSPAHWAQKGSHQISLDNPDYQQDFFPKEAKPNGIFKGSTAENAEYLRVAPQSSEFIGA

Structure (SMILES)	pIC50 (CDK2 (human))	pIC50 (EGFR)
NS(=O)(=O)c1ccc(NN=C2C(=O)Nc3ccc(C(=O)NCCn4ccnc4)cc32)cc1	7.60	–
CCOC(=O)c1ccc(Nc2ncc3cc(-c4c(Cl)cccc4Cl)c(=O)n(C)c3n2)cc1	–	4.12
Cn1c(=O)c(-c2c(Cl)cccc2Cl)cc2cnc(NCc3ccccc3)nc21	–	4.12
CNS(=O)(=O)Cc1ccc(NC=C2C(=O)Nc3ccc4ncsc4c32)cc1	7.58	–
Cn1c(=O)c(-c2c(Cl)cccc2Cl)cc2cnc(NC3CCCCC3)nc21	–	4.12
O=C1Nc2ccccc2C1=CNc1ccc(-c2cnco2)c2c1CS(=O)(=O)C2	8.05	–
O=C1Nc2ccc3ncsc3c2C1=CNc1ccc(S(=O)(=O)NCO)cc1	8.33	–
CC(C)(C)OC(=O)Nc1ccc(Nc2n[nH]c3ncnc(Nc4cccc(Cl)c4)c23)cc1	–	4.82
CC(C)Oc1cccc2c1C(=NNc1ccc(S(N)(=O)=O)cc1)C(=O)N2	8.48	–
